Reference: patent US9271962B2 (NORTHEASTERN UNIVERSITY, priority 2008, dated 2016)

Columns and labels:
ΔTM rFAAH = target: T1, ΔTM rFAAH (Rattus norvegicus, UniProt P97612); experiment: Fluorescent enzyme assay, FAAH (AAMCA hydrolysis); type: biochemical; details: AAMCA substrate, screening assay; for inhibition at 0.01 µM: 10 nM inhibitor; for inhibition at 1 µM: 1000 nM inhibitor
T1 construct: 15 ug of ΔTM rFAAH (cell lysate obtained by recombinant procedure); made in house
T1 sequence (P97612 30-579 limits assumed): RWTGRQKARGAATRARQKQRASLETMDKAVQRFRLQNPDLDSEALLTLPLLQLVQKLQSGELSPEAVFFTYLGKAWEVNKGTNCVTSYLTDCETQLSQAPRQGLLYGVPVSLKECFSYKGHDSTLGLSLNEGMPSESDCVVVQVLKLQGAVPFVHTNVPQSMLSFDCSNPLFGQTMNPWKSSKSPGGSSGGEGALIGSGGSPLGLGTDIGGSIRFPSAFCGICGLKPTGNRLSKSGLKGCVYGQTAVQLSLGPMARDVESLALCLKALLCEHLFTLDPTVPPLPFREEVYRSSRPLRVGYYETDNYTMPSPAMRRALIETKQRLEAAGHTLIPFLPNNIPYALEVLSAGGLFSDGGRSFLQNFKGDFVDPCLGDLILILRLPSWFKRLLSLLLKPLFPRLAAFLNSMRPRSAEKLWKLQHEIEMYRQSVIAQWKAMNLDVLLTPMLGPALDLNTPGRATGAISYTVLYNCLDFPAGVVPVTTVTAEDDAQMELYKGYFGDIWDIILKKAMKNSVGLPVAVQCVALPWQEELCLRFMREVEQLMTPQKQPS
Method: (§1) Some analogs were tested for their FAAH/MGL inhibitory activity, which is expressed as % of inhibition (Tables 2, 3, and 4 below). The percentage of inhibition results from three-point assay (three concentrations of inhibitor are used) and it is less accurate (preliminary screening) than the IC50/Ki values that are determined from eight-point assay (eight different concentrations of inhibitor were used). The percentage of inhibition describes the percentage by which the inhibitor reduces the velocity/rate of AAMCA (arachidonoyl-7-amino-4-methylcoumarin amide) or AHMMCE (arachidonoyl-7-hydroxy-6-methoxy-4-methylcoumarin ester) hydrolysis by FAAH or MGL respectively. The IC50 is the concentration of the inhibitor, which results in 50% inhibition of the velocity/rate of AAMCA (arachidonoyl 7-amino-4-methylcoumarin amide) hydrolysis by FAAH or AHMMCE (Arachidonoyl, 7-hydroxy-6-methoxy-4-methylcoumarin ester) hydrolysis by MGL. The Ki value is the affinity constant and describes the ability of the compounds to inhibit the function of FAAH or MGL. The lower the IC50/Ki values, the higher the affinity of the inhibitor for the enzyme and the higher its inhibitory activity. A detailed description of the methods used to test inhibitory activity of compounds is given below.
The enzyme (FAAH and MGL) assays were performed in 96 well plates (Coster #3650) in a total volume of 200 uL. Fluorogenic substrate AAMCA (arachidonoyl 7-amino-4-methylcoumarin amide) for FAAH and AHMMCE (arachidonoyl 7-hydroxy-6-methoxy-4-methylcoumarin ester) for MGL were used using BioTek Synergy HT Microplate Reader. Compounds and substrates were dissolved in DMSO provide a 10 mM stock solution and kept as a stock solution at −20° C. until used for assay. Stock solutions were thawed and reconstituted in 50:50 DMSO/assay buffer to a final DMSO concentration per well below 8%. This ensures that the compounds and substrate are in solution during assay. […] Appropriate substrate was added to adjust the final concentration in each well to 20 uM for FAAH (2× Km) and 10 uM for MGL (1×KM). Fluorescence readings were performed at λex=360/λem=460 for 4 h using Kinetic assay protocol at every 20 min (the fluorescent product coumarin produced is quantitated by this procedure). The readings at 3 h for FAAH and 2 h for MGL (linear maximum hydrolysis kinetics of enzyme on substrate) were used to calculate percent inhibition based on controls. Compounds which had more than 50 percent inhibition at 10 uM were selected for dose response study to determine IC50 values. The dose response at 8 concentration points was performed as with the screening assay except that compounds were serially diluted to 8 concentration points which were chosen based on IC50 value, which were calculated from the screening assay results. Assays are run twice in triplicates and Graphpad Prism software is used to plot inhibition data to obtain IC50 values.

hMGL = target: T2, hMGL (Homo sapiens, UniProt Q99685); experiment: Fluorescent enzyme assay, MGL (AHMMCE hydrolysis); type: biochemical; details: for inhibition at 0.01 µM: 10 nM inhibitor, read-out: % Inhibition of Enzyme by inhibitor, MGL, 10 nM; for inhibition at 0.01 µM / inhibition at 1 µM: AHMMCE substrate, screening assay; for inhibition at 1 µM: 1000 nM inhibitor
T2 construct: A full-length cDNA clone of the human MGL transcript variant 1; made in house; host or cells: E. coli BL21 (DE3)
T2 sequence (Q99685 2-303 limits assumed): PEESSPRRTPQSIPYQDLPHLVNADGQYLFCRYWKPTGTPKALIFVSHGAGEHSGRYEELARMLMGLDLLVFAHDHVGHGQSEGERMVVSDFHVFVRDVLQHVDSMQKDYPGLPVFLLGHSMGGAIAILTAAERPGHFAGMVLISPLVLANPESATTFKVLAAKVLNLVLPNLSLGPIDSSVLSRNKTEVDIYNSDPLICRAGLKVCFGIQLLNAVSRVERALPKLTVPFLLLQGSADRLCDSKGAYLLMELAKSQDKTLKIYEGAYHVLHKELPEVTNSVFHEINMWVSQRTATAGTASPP
Method: as §1
A full-length cDNA clone of the human MGL transcript variant 1 (gi: 51242951) was obtained from OriGene Technologies (Rockville, Md.). The coding part of the MGL sequence (except the translation initiation codon ATG) was amplified by a polymerase chain reaction (PCR) using forward […] and reverse […] primers containing PmlI and SacI restriction enzyme recognition sites, respectively. iProof high-fidelity DNA polymerase (Bio-Rad, Hercules, Calif.) was used in the PCR amplification with 33 cycles, each consisting of denaturation at 94° C. for 10 s, annealing at 55° C. for 33 s, and extension at 72° C. for 1 min. The PCR product and pET45b vector were digested with PmlI and SacI restriction enzymes, and the vector was dephosphorylated with CIP followed by in-gel purification using the MinElute Gel Extraction Kit (Qiagen Corp., Valencia, Calif.). The fragment was inserted into the vector directly downstream after the 6 histidine and valine codons, generating the construct pET45His6hMGL for expression of hMGL containing an N-terminal His6-tag. GC10 E. coli cells were used for DNA transformation and plasmid propagation. Mini- and midi-scale plasmid DNA preparations were performed using a GenElute Plasmid Miniprep Kit (Sigma) and PureYield Plasmid Midiprep System (Promega, Madison, Wis.), respectively. In-frame vector-fragment junctions and the coding sequence of the recombinant gene were confirmed by sequencing. The pET45His6hMGL construct was transformed into BL21 (DE3) and Origami (DE3) E. coli expression strains (Novagen, Madison, Wis.).
A single E. coli BL21 (DE3) colony containing the pET45His6hMGL plasmid was inoculated into 12 mL of Luria broth-ampicillin medium and grown overnight with shaking (250 rpm) at 37° C. The next morning, 10 mL of this culture was inoculated into 1 L of fresh Luria broth-ampicillin and allowed to grow until culture turbidity reached an (OD)600 of 0.6-0.8, at which time expression from the T7 promoter was induced by adding isopropyl-β-D-thio-galactopyranoside (1 mM). After 5 h induction, the cells were harvested by centrifugation at 5,000 g for 10 min at 4° C., washed with PBS, and held at −80° C. Five grams (wet-weight) of cells were resuspended in 50 mL lysis buffer (100 mM NaCl; 50 mM Tris, pH 8.0) supplemented with Triton X-100 (0.5%), lysozyme (0.2 mg/mL), and DNase I (25 μg/ml) and disrupted on ice by three, one-min sonication cycles, each consisting of 1-sec sonication bursts at 50 W power separated from each other by a 2-sec interval (Vibra-Cell 500 W, Sonics, Newtown, Conn.). The cell lysate was centrifuged at 10,000 g for 30 min at 4° C. […]

[1] = tested on: rats (KA-induced seizures); experiment: KA-induced seizures in rats, seizure scoring for 4 h; type: in vivo; details: 5 mg/kg injected immediately after 10 mg/kg KA; 4-h rating period
Method: These compounds were tested in vivo. Seizures were initiated in rats by injection with 10 mg/kg of KA (insult).

SMILES	inhibition at 0.01 µM (ΔTM rFAAH)	inhibition at 0.01 µM (hMGL)	inhibition at 1 µM (ΔTM rFAAH)	inhibition at 1 µM (hMGL)	inhibition at 100 µM (hMGL; 100 uM inhibitor, printed in the 1000 nM column)	KA-induced seizure severity [1]
CN(C)C(=O)n1nnc2ccccc21 [Compound 28, N,N-dimethyl-1H-benzo[d][1,2,3]-triazole-1-carboxamide]	67%	30%	–	–	–	–
CN(C)C(=O)N1CC(Cc2ccccc2)OC1=O (stereo not drawn) [Compound 32, 5-benzyl-N,N-dimethyl-2-oxooxazolidine-3-carboxamide]	–	–	5%	3%	–	–
CN(C)C(=O)n1cnc2cncnc21 [Compound 61, N,N-dimethyl-9H-purine-9-carboxamide]	–	–	87%	87%	–	–
O=C(N1CCC2(CC1)OCCO2)n1nnc(Cc2ccc(Cl)cc2Cl)n1 [Compound 14]	–	–	97%	52%	–	–
CN(C)C(=O)n1cnc2ncncc21 [Compound 60, N,N-dimethyl-7H-purine-7-carboxamide]	–	–	96%	86%	–	–
CN(C)C(=O)n1nnnc1Cc1cccnc1 [Compound 5, N,N-dimethyl-5-(pyridin-3-yl-methyl)-1H-tetrazole-1-carboxamide]	84%	81%	–	–	–	–
CN(C)C(=O)n1nnc(Cc2ccc([N+](=O)[O-])cc2)n1 [Compound 22a, N,N-dimethyl-5-(4-nitrobenzyl)-2H-tetrazole-2-carboxamide]	92%	97%	–	–	–	–
CN(C)C(=O)n1nnc(Cc2ccccc2)n1 [Compound 34, 5-benzyl-N,N-dimethyl-2H-tetrazole-2-carboxamide]	91%	100%	–	–	–	–
CN(C)C(=O)n1nnc(Cc2ccc(-c3ccncc3)cc2)n1 [Compound 44, N,N-dimethyl-5-(4-(pyridin-4-yl)benzyl)-2H-tetrazole-2-carboxamide]	–	–	12%	10%	–	–
CN(C)C(=O)n1nnnc1Cc1ccc([N+](=O)[O-])cc1 [Compound 22b]	85%	22%	–	–	–	–
CC(=O)Nc1ccc(Cc2nnnn2C(=O)N(C)C)cc1 [Compound 25b]	–	–	88%	90%	–	–
CN(C)C(=O)n1ncnn1 [Compound 1a, N,N-dimethyl-2H-tetrazole-2-carboxamide]	73%	58%	–	–	–	–
CN(C)C(=O)N1CC(C(C)(C)C)OC1=O (stereo not drawn) [Compound 31, 5-tert-butyl-N,N-dimethyl-2-oxooxazolidine-3-carboxamide]	–	–	63%	66%	–	–
O=C(N1CCN(Cc2ccccc2)CC1)n1nnc(Cc2ccc(Cl)cc2Cl)n1 [Compound 15]	–	–	95%	63%	–	–
CN(C)C(=O)n1nnnc1Cc1ccc(Cl)cc1 [Compound 21b]	93%	54%	–	–	–	–
CN(C)C(=O)n1cnnn1 [Compound 1b]	51%	13%	–	–	–	–
CN(CCCCN=[N+]=[N-])C(=O)n1cnc(-c2ccccc2)c1 [Compound 48, N-(4-azidobutyl)-N-methyl-4-phenyl-1H-imidazole-1-carboxamide]	8%	–	90%	14%	–	–
CN(C)C(=O)n1nnc(Cc2ccc3ccccc3c2)n1 [Compound 51]	–	–	30%	–	26%	–
CN(C(=O)n1nnc(Cc2ccc(Cl)cc2Cl)n1)c1ccccc1 [Compound 7a, 5-(2,4-dichlorobenzyl)-N-methyl-N-phenyl-2H-tetrazole-2-carboxamide]	84%	58%	–	–	–	–
C#CCc1nnnn1C(=O)N(C)C [Compound 2, N,N-dimethyl-5-prop-2-yn-1-yl-1H-tetrazole-1-carboxamide]	–	–	90%	35%	–	reduce KA-induced seizure severity
